Consider one compound from ChEMBL document CHEMBL5518165, “M335, a novel small-molecule STING agonist activates the immune response and exerts antitumor effects” (Eur J Med Chem, 2024).

Active and inactive are the calls of the source. The calls are words filed in the database; no cut-off is given here.

For data set [1], the system named is MC-38. Kind of data set: Antitumor activity against mouse MC38 cells allografted in C57/BL6 mouse assessed as increase in CD8+ T cell numbers in spleen at 300 ug, IT administered every 2 days by immunohistochemical staining based analysis. The class given is functional. To be noted: dose 300.0 µg.
Data set [2] can be described thus: Toxicity in C57/BL6 mouse allografted with mouse MC38 cells assessed as change in body weight at 300 ug, IT administered every 2 days. In kind it is cell-based, MC-38. To be noted: in vivo, other, 48 h, dose 300 µg.
The next data set deals with THP-1. Put plainly: Upregulation of ISG15 mRNA level in STING-knockout human THP-1 cells at 20 uM measured for 4 hrs by qPCR analysis. In kind it is functional, cell-based.
Data set [3] deals with Stimulator of interferon genes protein (Homo sapiens) (UniProt Q86WV6). Kind of data set: Agonist activity at STING in human THP-1 cells assessed as increase in TBK1 phosphorylation at 20 uM measured for 4 hrs by Western blotting analysis. In kind it is cell-based. The note with it: filed as agonist.
The subject of data set [4] is CT26. Kind of data set: Antitumor activity against mouse CT26 cells allografted in […] mouse assessed as augmentation of CD45+ cells in spleen at 5 mg/kg, ip administered every 2 days (reference value: 35.1%). The class given is functional.
The target in data set [5] is Stimulator of interferon genes protein (Homo sapiens) (UniProt Q86WV6). Kind of data set: Agonist activity at STING in human THP-1 cells assessed as upregulation of innate immune response related genes by gene ontology analysis. To be noted: filed as agonist. The class given is cell-based.
The target is the same in data set [6]. Put plainly: Agonist activity at STING in human THP-1 cells assessed as IRF3 phosphorylation at 20 uM measured for 4 hrs in presence of H-151 by Western blotting analysis. In kind it is cell-based.
The test system of data set [7] is CT26. Put plainly: Antitumor activity against mouse CT26 cells allografted in […] mouse assessed as reduction in tumor development at 300 ug, IT administered every 2 days. In kind it is functional, cell-based. The note with it: dose 300.0 µg.
In data set [8] the target is Stimulator of interferon genes protein (Homo sapiens) (UniProt Q86WV6). Kind of data set: Agonist activity at STING in human THP-1 cells assessed as increase in IRF3 phosphorylation incubated for 4 hrs by Western blotting analysis. The class given is cell-based. The note with it: filed as agonist, dose 5-40 µM.
Data set [9] concerns MC-38. Kind of data set: Antitumor activity against mouse MC38 cells allografted in C57/BL6 mouse assessed as tumor growth inhibition at 300 ug, IT administered every 2 days relative to control. The class given is functional. The note with it: dose 300 µg.

Chain of Stimulator of interferon genes protein (Homo sapiens) (Q86WV6 whole entry): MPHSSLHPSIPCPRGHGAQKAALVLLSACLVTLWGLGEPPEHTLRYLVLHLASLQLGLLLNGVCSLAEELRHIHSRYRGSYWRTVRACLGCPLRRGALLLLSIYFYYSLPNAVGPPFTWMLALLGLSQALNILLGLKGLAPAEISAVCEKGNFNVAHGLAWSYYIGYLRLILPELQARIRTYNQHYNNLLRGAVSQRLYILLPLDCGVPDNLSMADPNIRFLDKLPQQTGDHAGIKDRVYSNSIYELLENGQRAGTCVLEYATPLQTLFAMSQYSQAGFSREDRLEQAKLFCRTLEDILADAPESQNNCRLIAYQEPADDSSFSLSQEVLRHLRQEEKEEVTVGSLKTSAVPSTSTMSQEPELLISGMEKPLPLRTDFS

For `CC(NCCC(c1ccccc1)c1ccccc1)c1ccccc1` (stereo not given) [FENDILINE], the outcome (with MC-38 [1]; in data set [3]; in data set [5]; with CT26 [7]) was Active. Besides, the Activity result is “Non-Toxic” in data set [2], 42.5% in the data set with CT26 [4] and “Dose-Dependent Effect” in [8]. In addition, the result (in the data set with THP-1; in data set [6]) was inactive. Also, in the data set with MC-38 [9], the TGI amounted to 82%.
